Reference: patent US8138168B1 (Takeda Pharmaceutical Company Limited, priority 2007, dated 2012)
pIC50: −log10 of the molar value.

Molecular target: T1, Recombinant human renin (Homo sapiens, UniProt P00797)
T1 construct: isolate the active form (residues 67-406); made in house; host or cells: FreeStyle 293-F cells (transient expression of pcDNA3.1(+)/hREN)
T1 sequence (P00797 67-406): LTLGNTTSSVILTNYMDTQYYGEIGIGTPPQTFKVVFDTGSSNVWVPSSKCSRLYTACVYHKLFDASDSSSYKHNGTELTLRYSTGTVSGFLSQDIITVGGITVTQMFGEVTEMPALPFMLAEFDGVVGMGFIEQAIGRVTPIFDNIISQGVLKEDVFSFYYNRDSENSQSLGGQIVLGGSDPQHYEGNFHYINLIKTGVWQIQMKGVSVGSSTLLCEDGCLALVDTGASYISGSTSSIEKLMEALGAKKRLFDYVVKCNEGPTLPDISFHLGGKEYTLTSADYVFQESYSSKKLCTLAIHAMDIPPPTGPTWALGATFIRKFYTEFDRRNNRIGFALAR
Experiment: In vitro enzymatic activity assay of renin inhibitors (fluorogenic peptide substrate)
Assay type: biochemical
Conditions: read-out: IC50 of Exemplified Compounds Against Renin
How it was run: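 Recombinant human renin (3 nM final) pre-incubated 10 min at 37 °C with compounds in pH 7.4 Hepes/EDTA/DTT/0.1 mg/mL BSA/Brij35 buffer (optionally plus 2% BSA), 5% DMSO final; fluorogenic QXL520/HiLyteFluo488 peptide substrate added.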

Compound | pIC50
COCCCn1c([C@@H]2CCCN(C(=O)C[C@H](N)CNC(=O)Nc3ccccc3OC)C2)nc2ccccc21 [Compound 250, 1-((S)-2-amino-4-((R)-3-(1-(3-methoxypropyl)-1H-benzo[d]imidazol-2-yl)piperidin-1-yl)-4-oxobutyl)-3-(2-methoxyphenyl)urea] | > 7.00
CCNC(=O)Nc1ccc(-c2ccc(C[C@@H](N)CC(=O)N3CCC[C@@H](c4nc5ccccc5n4CCCOC)C3)cc2)cc1 [Compound 173, 1-(4′-((R)-2-amino-4-((R)-3-(1-(3-methoxypropyl)-1H-benzo[d]imidazol-2-yl)piperidin-1-yl)-4-oxobutyl)biphenyl-4-yl)-3-ethylurea] | > 7.00
COCCCn1c([C@@H]2CCCN(C(=O)C[C@H](N)Cc3ccc(-c4cnc(C)n4C)cc3)C2)nc2ccccc21 [Compound 204, (R)-3-amino-4-(4-(1,2-dimethyl-1H-imidazol-5-yl)phenyl)-1-((R)-3-(1-(3-methoxypropyl)-1H-benzo[d]imidazol-2-yl)piperidin-1-yl)butan-1-one] | 6.00 to 7.00
COCCCn1c([C@@H]2CCCN(C(=O)C[C@H](N)Cc3ccc(-c4ccc(S(C)(=O)=O)cc4)cc3)C2)nc2ccccc21 [Compound 165, (R)-3-amino-1((R)-3-(1-(3-methoxypropyl)-1H-benzo[d]imidazol-2-yl)piperidin-1-yl)-4-(4′-(methylsulfonyl)biphenyl-4-yl)butan-1-one] | > 7.00
COCCCn1c([C@@H]2CCCN(C(=O)C[C@H](N)Cc3ccc(-c4cnc(N)nc4)cc3)C2)nc2c(F)cccc21 [Compound 456, (R)-3-amino-4-(4-(2-aminopyrimidin-5-yl)phenyl)-1-((R)-3-(4-fluoro-1-(3-methoxypropyl)-1H-benzo[d]imidazol-2-yl)piperidin-1-yl)butan-1-one] | > 7.00
COCCCn1c([C@@H]2CCCN(C(=O)C[C@H](N)CNC(=O)Nc3ccc(OC)cc3OC)C2)nc2ccccc21 [Compound 279, 1-((S)-2-amino-4-((R)-3-(1-(3-methoxypropyl)-1H-benzo[d]imidazol-2-yl)piperidin-1-yl)-4-oxobutyl)-3-(2,4-dimethoxyphenyl)urea] | 6.00 to 7.00
NC(=O)CCn1c([C@@H]2CCCN(C(=O)C[C@H](N)Cc3ccc(-c4cnc(N)nc4)cc3)C2)nc2ccccc21 [Compound 481, 3-(2-((R)-1-((R)-3-amino-4-(4-(2-aminopyrimidin-5-yl)phenyl)butanoyl)piperidin-3-yl)-1H-benzo[d]imidazol-1-yl)propanamide] | 6.00 to 7.00
COCCCn1c([C@@H]2CCCN(C(=O)C[C@H](N)CNS(=O)(=O)c3ccccc3Cl)C2)nc2ccccc21 [Compound 306, N-((S)-2-amino-4-((R)-3-(1-(3-methoxypropyl)-1H-benzo[d]imidazol-2-yl)piperidin-1-yl)-4-oxobutyl)-2-chlorobenzenesulfonamide] | 6.00 to 7.00
COCCCn1c([C@@H]2CCCN(C(=O)C[C@H](N)Cc3ccc(-c4ccc(C(=O)NCCO)nc4)cc3)C2)nc2ccccc21 [Compound 194, 5-(4-((R)-2-Amino-4-((R)-3-(1-(3-methoxypropyl)-1H-benzo[d]imidazol-2-yl)piperidin-1-yl)-4-oxobutyl)phenyl)-N-(2-hydroxyethyl)picolinamide] | > 7.00
COCCCn1c([C@@H]2CCCN(C(=O)C[C@H](N)Cc3ccc(-c4ccc5c(c4)SCC(=O)N5)cc3)C2)nc2c(C)cccc21 [Compound 496, 7-(4-((R)-2-amino-4-((R)-3-(1-(3-methoxypropyl)-4-methyl-1H-benzo[d]imidazol-2-yl)piperidin-1-yl)-4-oxobutyl)phenyl)-2H-benzo[b][1,4]thiazin-3(4H)-one] | > 7.00
COCCCn1c([C@@H]2CCCN(C(=O)C[C@H](N)CNC(=O)c3ccc(-c4ccccc4)cc3)C2)nc2ccccc21 [Compound 264, N-((S)-2-amino-4-((R)-3-(1-(3-methoxypropyl)-1H-benzo[d]imidazol-2-yl)piperidin-1-yl)-4-oxobutyl)biphenyl-4-carboxamide] | 6.00 to 7.00
COCCCn1c([C@@H]2CCCN(C(=O)C[C@H](N)CNS(=O)(=O)c3ccccc3OC)C2)nc2ccccc21 [Compound 324, N-((S)-2-amino-4-((R)-3-(1-(3-methoxypropyl)-1H-benzo[d]imidazol-2-yl)piperidin-1-yl)-4-oxobutyl)-2-methoxybenzenesulfonamide] | < 6.00
COCCCn1c([C@@H]2CCCN(C(=O)C[C@H](N)Cc3ccc(-c4ccc(NC(C)=O)cc4)cc3)C2)nc2ccccc21 [Compound 129, N-(4′-((R)-2-amino-4-((R)-3-(1-(3-methoxypropyl)-1H-benzo[d]imidazol-2-yl)piperidin-1-yl)-4-oxobutyl)biphenyl-4-yl)acetamide] | > 7.00

Results, then the molecule that gave them:

pIC50 | Compound
< 6.00 | N[C@@H](CC(=O)N1CCCC(c2nc3ccccc3[nH]2)C1)Cc1ccc([N+](=O)[O-])cc1 (stereo partly drawn) [Compound 39, (3R)-1-(3-(1H-benzo[d]imidazol-2-yl)piperidin-1-yl)-3-amino-4-(4-nitrophenyl)butan-1-one]
< 6.00 | COCCCn1c([C@@H]2CCCN(C(=O)[C@@H]3CN(C(=O)c4ccc(OC)cc4)C[C@H]3N)C2)nc2ccccc21 [Compound 394, ((3R,4S)-4-amino-1-(4-methoxybenzoyl)pyrrolidin-3-yl)((R)-3-(1-(3-methoxypropyl)-1H-benzo[d]imidazol-2-yl)piperidin-1-yl)methanone]
> 7.00 | COCCCn1c([C@@H]2CCCN(C(=O)C[C@H](N)Cc3ccc(-c4ccc[nH]4)cc3)C2)nc2ccccc21 [Compound 153, (R)-4-(4-(1H-pyrrol-2-yl)phenyl)-3-amino-1-((R)-3-(1-(3-methoxypropyl)-1H-benzo[d]imidazol-2-yl)piperidin-1-yl)butan-1-one]
> 7.00 | COCCCn1c([C@@H]2CCCN(C(=O)[C@@H]3CN(S(=O)(=O)c4ccc5[nH]c(=O)[nH]c5c4)C[C@H]3N)C2)nc2ccccc21 [Compound 338]
6.00 to 7.00 | COCCCn1c([C@@H]2CCCN(C(=O)[C@@H]3CN(S(=O)(=O)c4ccc(F)cc4Cl)C[C@H]3N)C2)nc2ccccc21 [Compound 349, ((3R,4S)-4-amino-1-(2-chloro-4-fluorophenylsulfonyl)pyrrolidin-3-yl)((R)-3-(1-(3-methoxypropyl)-1H-benzo[d]imidazol-2-yl)piperidin-1-yl)methanone]
6.00 to 7.00 | COCCCn1c([C@@H]2CCCN(C(=O)C[C@H](N)Cc3ccc(Br)cc3)C2)nc2ccccc21 [Compound 91, (R)-3-amino-4-(4-bromophenyl)-1((R)-3-(1-(3-methoxypropyl)-1H-benzo[d]imidazol-2-yl)piperidin-1-yl)butan-1-one]
6.00 to 7.00 | COCCCn1c([C@@H]2CCCN(C(=O)[C@@H]3CN(S(=O)(=O)c4ccc5c(ccn5C)c4)C[C@H]3N)C2)nc2ccccc21 [Compound 360, ((3R,4S)-4-amino-1-(1-methyl-1H-indol-5-ylsulfonyl)pyrrolidin-3-yl)((R)-3-(1-(3-methoxypropyl)-1H-benzo[d]imidazol-2-yl)piperidin-1-yl)methanone]
< 6.00 | O=C([C@@H]1CCCN1C1CCNCC1)N1CCCC(c2nc3ccccc3[nH]2)C1 (stereo partly drawn) [Compound 49, (3-(1H-benzo[d]imidazol-2-yl)piperidin-1-yl)((S)-1-(piperidin-4-yl)pyrrolidin-2-yl)methanone]
